This is an account of results in PMC11694131 (Haematologica, 2024).

Like-named read-outs stand apart in the source and are kept apart here.

One series deals with MOLT4. As to the kind of experiment: CellTiter-Glo viability, MOLT4. Format: cell-based. The conditions noted are these: read-out: IC50, CellTiter-Glo. (In ATP-based viability assays light output follows the ATP content of the culture.)
For the next series, the system named is PF-382. The series is described as follows: CellTiter-Glo viability, PF-382. The format is cell-based. The conditions noted are these: read-out: IC50, CellTiter-Glo.
The next series has as its system CCRF-CEM. As to the kind of experiment: CellTiter-Glo viability, CCRF-CEM. The format is cell-based.
The next series concerns LOUCY. As to the kind of experiment: CellTiter-Glo viability, LOUCY. The format is cell-based. Particulars: read-out: IC50, CellTiter-Glo.
The test system of the next series is RS4;11. As to the kind of experiment: CellTiter-Glo viability, RS4. Format: cell-based. The conditions noted are these: for IC50: Homo sapiens, RS4-11, 24 h, read-out: IC50, CellTiter-Glo.
Another series concerns platelets. The series is described as follows: 14-day repeat-dose non-GLP platelet toxicity study in dogs. Particulars: oral once daily. Format: in vivo, dog.
A short description of a further series: in vitro. The conditions noted are these: human.
For series [1], the system named is primary CLL cells co-cultured on HS-5 stromal cells. As to the kind of experiment: Primary CLL cells co-cultured on HS-5 stroma, Annexin V / TMRM. The conditions noted are these: HS-5 co-culture 24 hr. Format: cell-based, human.
Series [2] has as its system treatment-naïve primary CLL cells. The series is described as follows: TMRM / Annexin V apoptosis assay, treatment-naïve primary CLL cells. The conditions noted are these: Homo sapiens, CLL cell, 18 h, read-out: IC50, apoptosis (TMRM and Annexin V). The format is cell-based.
A short description of series [3]: Single-dose dog PK and platelet toxicity study. Format: in vivo. Particulars: 25 mg/kg single oral dose.
The subject of series [4] is venetoclax-relapsed primary CLL cells. The series is described as follows: TMRM / Annexin V apoptosis assay, venetoclax-relapsed primary CLL cells. The format is cell-based. Particulars: Homo sapiens, CLL cell, read-out: IC50, apoptosis (TMRM and Annexin V).
Series [5] has as its system primary CLL cells cultured with or without NK Tert stroma. As to the kind of experiment: Primary CLL cells with or without NK Tert stroma, Annexin V / TMRM. The format is cell-based. The conditions noted are these: Homo sapiens, CLL cell.
Series [6] relates to OSU-CLL BCL2 knockout (KO) cells. As to the kind of experiment: CellTiter-Glo viability, OSU-CLL BCL2 KO. The conditions noted are these: 72 hr, above 200 nM. Format: cell-based.
Series [7] has as its system RS4;11 cells with WT BCL2. As to the kind of experiment: TMRM / Annexin V staining, RS4. The format is cell-based. Particulars: Homo sapiens, RS4-11, 72 h, read-out: IC50, TMRM / Annexin V.
Another series relates to OSU-CLL xenograft. The series is described as follows: OSU-CLL xenograft. Format: in vivo, mouse. Particulars: 50 mg/kg daily oral gavage.
The next series deals with RS4;11 WT BCL2 xenograft. As to the kind of experiment: RS4. Format: in vivo, mouse. Particulars: 6.25 mg/kg orally once daily for 28 days.
The mark [8] stands for this setting: read-out: IC50, CLL cells co-cultured with NK Tert cells.
The mark [9] stands for this setting: read-out: IC50, CLL cells without stromal protection.

Regarding `Cc1c(-c2ccc(N3CCc4cccc(C(=O)Nc5nc6ccccc6s5)c4C3)nc2C(=O)O)cnn1CC12CC3CC(CC(C3)C1)C2` [A-1331852], the IC50 was 5.5 nM in the series on MOLT4 (MOLT4, 24 hr); 46.6 nM with PF-382 (PF-382, 24 hr); 13.9 nM with CCRF-CEM (read-out: IC50, CellTiter-Glo, 24 hr); 130 nM in the series on LOUCY (LOUCY, 24 hr). Moreover, the “IC50, CellTiter-Glo” value with RS4;11 (RS4;11, 24 hr) is recorded as “not effective”.

In the case of `CC1(C)CCC(c2ccc(Cl)cc2)=C(CN2CCN(c3ccc(C(=O)NS(=O)(=O)c4ccc(N[C@H](CCN5CCOCC5)CSc5ccccc5)c(S(=O)(=O)C(F)(F)F)c4)cc3)CC2)C1` [navitoclax], the IC50 amounted to 291 nM in the series on MOLT4 (Homo sapiens, MOLT-4, 24 h); 379 nM in the series on PF-382 (Homo sapiens, PF-382, 24 h); 170 nM in “in vitro”; 492 nM in the series on CCRF-CEM (Homo sapiens, 24 h, read-out: IC50, CellTiter-Glo); 47.4 nM in the series with LOUCY (24 h); 42.1 nM with RS4;11. The IC50 in series [2] worked out at 10.1 nM; in [4], 4.13 nM; in [5] (setting [8]) it was 16 nM; in series [5] (setting [9]), 5.9 nM. Besides, the “dose at which platelet toxicity was induced” value in the series on platelets was over 3 mg/kg. Besides, in series [1], the “effect of HS-5 stroma on sensitivity of CLL cells” value is on record as “does not alter the sensitivity”. For the same compound, the “maximum reduction in platelets” value in series [3] worked out at 97%.

For `CC1(C)CCC(CN2CCN(c3ccc(C(=O)NS(=O)(=O)c4ccc(NCC5CCOCC5)c([N+](=O)[O-])c4)c(Oc4cnc5[nH]ccc5c4)c3)CC2)=C(c2ccc(Cl)cc2)C1` [venetoclax], in series [6], the plateau of killing amounted to 50%. Moreover, the IC50 in series [7] is 3.58 nM; in the series “in vitro” it was 25000 nM; in the series with LOUCY (24 h), 125 nM; in the series with RS4;11 it was 4.7 nM; in [2] it was 3.8 nM; in series [4], 16 nM. Moreover, the IC50 was found to be 1.2 nM in series [5] (setting [8]) and 0.908 nM in series [5] (setting [9]). In addition, the “platelet counts throughout treatment” value in the series on OSU-CLL xenograft was “maintained similar platelet counts”. The “survival compared to vehicle” value in the series on OSU-CLL xenograft was “significantly improved the survival”. In series [1], the “effect of HS-5 stroma on sensitivity of CLL cells” value is on record as “does not alter the sensitivity”. Further, the median survival in the series on RS4;11 WT BCL2 xenograft worked out at 59 days. In addition, the “tumor volume upon stopping treatment” value with RS4;11 WT BCL2 xenograft was “relapsed and exhibited increased tumor growth”. Moreover, the “maximum reduction in platelets” value in [3] turned out to be 6%. Further, the “plasma persistence / clearance at 30 hr post treatment” value in series [3] is reported as “persisted in plasma”.
